Among the data in BindingDB's records for PubMed 1501121 (Sanofi Recherche, 1992) are Ki values, retold here.

The target in experiment [1] is Sodium channel protein type 10 subunit alpha (Rattus norvegicus, UniProt Q62968).
The target in experiment [2] is 5-hydroxytryptamine receptor 2A (Rattus norvegicus, UniProt P14842).
Experiment [3] deals with T1, Alpha-1A adrenergic receptor (Rattus norvegicus, UniProt P43140).
T1 sequence (P43140 whole entry): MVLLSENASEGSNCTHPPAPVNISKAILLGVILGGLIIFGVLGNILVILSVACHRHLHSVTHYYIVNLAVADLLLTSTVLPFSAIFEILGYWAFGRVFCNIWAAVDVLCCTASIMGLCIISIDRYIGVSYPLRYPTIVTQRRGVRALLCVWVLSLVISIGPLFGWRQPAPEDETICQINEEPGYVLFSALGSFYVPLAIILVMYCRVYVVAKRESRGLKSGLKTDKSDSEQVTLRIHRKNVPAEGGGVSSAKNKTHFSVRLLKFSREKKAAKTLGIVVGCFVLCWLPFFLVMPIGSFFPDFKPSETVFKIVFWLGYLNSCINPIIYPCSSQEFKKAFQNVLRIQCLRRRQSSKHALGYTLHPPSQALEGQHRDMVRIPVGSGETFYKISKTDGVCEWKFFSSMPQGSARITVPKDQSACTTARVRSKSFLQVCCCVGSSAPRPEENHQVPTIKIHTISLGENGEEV

Experiment [4] has as its target T2, 5-hydroxytryptamine receptor 2C (Sus scrofa, UniProt G7ZKZ7).
T2 sequence (G7ZKZ7 whole entry): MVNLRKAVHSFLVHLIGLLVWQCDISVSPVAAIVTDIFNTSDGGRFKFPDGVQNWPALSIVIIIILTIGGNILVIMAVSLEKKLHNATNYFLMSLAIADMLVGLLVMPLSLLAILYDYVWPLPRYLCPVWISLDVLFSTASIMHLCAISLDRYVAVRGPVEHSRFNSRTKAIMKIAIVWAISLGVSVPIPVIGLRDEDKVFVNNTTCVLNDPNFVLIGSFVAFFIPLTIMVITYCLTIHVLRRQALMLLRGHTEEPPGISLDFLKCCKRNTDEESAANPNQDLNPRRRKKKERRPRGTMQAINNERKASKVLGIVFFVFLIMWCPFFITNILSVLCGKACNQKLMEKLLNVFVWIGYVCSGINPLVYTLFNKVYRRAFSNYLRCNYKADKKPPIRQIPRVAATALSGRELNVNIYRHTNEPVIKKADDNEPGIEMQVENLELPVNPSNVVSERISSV

Experiment [5] deals with Histamine H1 receptor (Rattus norvegicus, UniProt P31390).
Chain of Histamine H1 receptor (P31390 whole entry): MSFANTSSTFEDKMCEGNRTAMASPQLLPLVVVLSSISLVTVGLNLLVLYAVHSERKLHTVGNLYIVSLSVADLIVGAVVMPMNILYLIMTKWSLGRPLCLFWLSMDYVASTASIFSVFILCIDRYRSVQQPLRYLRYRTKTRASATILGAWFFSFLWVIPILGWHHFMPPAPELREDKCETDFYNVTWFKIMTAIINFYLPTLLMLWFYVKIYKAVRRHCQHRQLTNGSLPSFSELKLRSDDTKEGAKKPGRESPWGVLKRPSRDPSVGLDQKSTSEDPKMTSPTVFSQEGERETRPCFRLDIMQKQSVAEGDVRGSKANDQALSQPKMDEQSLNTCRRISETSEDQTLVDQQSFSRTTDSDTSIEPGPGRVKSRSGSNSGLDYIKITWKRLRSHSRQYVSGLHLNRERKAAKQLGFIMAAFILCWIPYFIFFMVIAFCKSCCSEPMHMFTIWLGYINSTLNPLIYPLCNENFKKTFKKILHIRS
Experiment [6] concerns the target 5-hydroxytryptamine receptor 1B (Rattus norvegicus, UniProt P28564).
Experiment [7] addresses T3, Alpha-2C adrenergic receptor (Rattus norvegicus, UniProt P22086).
T3 sequence (P22086 whole entry): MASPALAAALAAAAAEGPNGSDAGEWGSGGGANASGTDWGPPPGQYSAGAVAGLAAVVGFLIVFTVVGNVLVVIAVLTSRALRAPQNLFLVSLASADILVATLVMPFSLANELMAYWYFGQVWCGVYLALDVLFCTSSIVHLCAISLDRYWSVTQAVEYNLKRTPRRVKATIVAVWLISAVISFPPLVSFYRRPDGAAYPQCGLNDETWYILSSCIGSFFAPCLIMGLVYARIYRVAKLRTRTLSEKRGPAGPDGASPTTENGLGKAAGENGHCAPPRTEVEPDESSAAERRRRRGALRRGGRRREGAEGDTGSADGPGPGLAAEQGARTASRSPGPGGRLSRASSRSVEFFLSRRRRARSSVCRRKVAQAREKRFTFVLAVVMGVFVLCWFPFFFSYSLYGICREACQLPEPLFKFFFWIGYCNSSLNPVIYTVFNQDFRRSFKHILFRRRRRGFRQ

Experiment [8] addresses D(1A) dopamine receptor (Rattus norvegicus, UniProt P18901).
Experiment [9] addresses 5-hydroxytryptamine 1D receptor (Bos taurus, UniProt Q8MI13).
Experiment [10] deals with D(2) dopamine receptor (Rattus norvegicus, UniProt P61169).
Chain of D(2) dopamine receptor (P61169 whole entry): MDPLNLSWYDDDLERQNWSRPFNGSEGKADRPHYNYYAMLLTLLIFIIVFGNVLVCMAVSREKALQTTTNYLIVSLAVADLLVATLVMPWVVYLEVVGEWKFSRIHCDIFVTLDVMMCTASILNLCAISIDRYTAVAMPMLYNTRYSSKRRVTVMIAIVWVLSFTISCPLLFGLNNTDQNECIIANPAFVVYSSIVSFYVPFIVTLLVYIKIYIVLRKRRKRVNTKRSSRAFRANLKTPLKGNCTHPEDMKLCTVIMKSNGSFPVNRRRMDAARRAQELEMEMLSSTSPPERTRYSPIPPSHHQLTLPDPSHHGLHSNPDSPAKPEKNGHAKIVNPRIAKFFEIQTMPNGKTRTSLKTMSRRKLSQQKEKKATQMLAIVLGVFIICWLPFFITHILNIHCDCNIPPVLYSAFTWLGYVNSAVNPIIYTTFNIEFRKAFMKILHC

Chain of 5-hydroxytryptamine 1D receptor (Q8MI13 whole entry): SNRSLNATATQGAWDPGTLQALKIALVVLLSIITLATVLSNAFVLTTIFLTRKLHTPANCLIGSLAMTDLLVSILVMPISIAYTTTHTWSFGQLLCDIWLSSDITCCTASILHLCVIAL
Chain of D(1A) dopamine receptor (P18901 whole entry): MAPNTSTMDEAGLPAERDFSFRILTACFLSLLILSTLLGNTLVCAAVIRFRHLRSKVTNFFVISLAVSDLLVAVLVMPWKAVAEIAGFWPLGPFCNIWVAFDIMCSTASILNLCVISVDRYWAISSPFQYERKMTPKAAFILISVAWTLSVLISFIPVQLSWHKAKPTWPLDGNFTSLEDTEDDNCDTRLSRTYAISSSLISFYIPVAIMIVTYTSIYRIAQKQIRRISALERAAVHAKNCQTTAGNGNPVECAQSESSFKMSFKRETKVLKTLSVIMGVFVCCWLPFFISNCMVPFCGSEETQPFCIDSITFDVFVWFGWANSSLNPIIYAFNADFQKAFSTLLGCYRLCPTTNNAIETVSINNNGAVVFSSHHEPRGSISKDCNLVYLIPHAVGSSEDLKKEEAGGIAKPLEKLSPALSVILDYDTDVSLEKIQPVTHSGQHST
Chain of Sodium channel protein type 10 subunit alpha (Q62968 whole entry): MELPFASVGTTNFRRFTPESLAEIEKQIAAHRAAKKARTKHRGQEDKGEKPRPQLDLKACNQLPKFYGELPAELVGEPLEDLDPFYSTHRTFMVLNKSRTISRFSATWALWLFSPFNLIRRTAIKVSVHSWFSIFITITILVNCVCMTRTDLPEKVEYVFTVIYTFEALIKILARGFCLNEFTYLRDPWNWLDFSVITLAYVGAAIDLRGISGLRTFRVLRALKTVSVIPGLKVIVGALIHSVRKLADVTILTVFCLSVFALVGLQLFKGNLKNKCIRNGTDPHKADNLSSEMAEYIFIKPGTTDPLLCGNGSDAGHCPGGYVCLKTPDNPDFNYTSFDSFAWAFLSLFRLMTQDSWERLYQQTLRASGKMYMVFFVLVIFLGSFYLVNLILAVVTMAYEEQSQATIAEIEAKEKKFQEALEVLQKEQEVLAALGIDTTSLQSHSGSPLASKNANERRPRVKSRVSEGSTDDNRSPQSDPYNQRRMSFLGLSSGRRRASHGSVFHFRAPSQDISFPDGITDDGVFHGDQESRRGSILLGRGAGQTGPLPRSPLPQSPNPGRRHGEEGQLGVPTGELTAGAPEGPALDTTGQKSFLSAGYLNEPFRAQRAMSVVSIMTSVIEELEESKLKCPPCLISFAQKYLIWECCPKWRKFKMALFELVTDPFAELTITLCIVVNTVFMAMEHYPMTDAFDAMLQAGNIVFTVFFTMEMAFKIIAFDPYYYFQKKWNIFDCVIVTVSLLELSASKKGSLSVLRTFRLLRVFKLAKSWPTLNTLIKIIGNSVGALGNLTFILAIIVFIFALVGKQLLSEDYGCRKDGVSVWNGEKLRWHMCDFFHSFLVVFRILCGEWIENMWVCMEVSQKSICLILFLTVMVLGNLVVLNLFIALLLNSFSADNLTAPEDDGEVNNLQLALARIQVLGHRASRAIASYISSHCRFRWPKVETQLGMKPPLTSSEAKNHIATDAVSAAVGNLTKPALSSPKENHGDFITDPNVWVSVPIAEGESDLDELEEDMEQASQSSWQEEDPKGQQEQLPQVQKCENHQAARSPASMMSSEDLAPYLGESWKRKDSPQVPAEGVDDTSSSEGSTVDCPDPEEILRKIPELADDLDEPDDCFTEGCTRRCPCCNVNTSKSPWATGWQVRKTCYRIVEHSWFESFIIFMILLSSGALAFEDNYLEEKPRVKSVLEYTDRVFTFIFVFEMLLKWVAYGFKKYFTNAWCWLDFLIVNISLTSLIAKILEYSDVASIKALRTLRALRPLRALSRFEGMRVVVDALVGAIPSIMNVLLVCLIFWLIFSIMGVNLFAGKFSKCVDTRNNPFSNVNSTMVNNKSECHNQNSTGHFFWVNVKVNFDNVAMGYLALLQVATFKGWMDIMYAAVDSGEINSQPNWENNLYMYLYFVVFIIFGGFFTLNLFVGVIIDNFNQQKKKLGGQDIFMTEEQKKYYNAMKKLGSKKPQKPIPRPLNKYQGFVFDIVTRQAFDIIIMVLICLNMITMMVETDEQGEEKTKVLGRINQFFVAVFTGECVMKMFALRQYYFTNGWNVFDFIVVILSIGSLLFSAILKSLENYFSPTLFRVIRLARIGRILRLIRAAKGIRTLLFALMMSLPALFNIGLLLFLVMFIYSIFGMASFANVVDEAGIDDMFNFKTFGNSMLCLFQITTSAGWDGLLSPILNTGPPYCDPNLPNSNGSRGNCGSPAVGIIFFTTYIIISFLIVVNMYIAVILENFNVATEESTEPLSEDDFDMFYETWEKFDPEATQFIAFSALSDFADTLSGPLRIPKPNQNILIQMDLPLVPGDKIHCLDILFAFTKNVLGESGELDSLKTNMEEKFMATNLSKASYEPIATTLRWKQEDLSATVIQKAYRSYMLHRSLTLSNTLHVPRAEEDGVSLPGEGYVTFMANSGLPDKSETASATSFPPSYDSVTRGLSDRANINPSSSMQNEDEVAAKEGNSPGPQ
Chain of 5-hydroxytryptamine receptor 1B (P28564 whole entry): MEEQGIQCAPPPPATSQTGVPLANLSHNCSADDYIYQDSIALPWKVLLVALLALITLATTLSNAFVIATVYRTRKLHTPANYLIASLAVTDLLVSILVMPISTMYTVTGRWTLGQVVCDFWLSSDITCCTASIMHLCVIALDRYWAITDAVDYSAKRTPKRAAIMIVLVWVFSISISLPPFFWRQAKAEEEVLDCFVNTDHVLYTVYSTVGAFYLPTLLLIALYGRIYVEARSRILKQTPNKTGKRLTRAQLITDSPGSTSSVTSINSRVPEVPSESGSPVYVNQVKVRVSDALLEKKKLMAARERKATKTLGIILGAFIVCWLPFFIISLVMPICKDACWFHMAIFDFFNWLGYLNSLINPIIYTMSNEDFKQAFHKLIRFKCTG
Chain of 5-hydroxytryptamine receptor 2A (P14842 whole entry): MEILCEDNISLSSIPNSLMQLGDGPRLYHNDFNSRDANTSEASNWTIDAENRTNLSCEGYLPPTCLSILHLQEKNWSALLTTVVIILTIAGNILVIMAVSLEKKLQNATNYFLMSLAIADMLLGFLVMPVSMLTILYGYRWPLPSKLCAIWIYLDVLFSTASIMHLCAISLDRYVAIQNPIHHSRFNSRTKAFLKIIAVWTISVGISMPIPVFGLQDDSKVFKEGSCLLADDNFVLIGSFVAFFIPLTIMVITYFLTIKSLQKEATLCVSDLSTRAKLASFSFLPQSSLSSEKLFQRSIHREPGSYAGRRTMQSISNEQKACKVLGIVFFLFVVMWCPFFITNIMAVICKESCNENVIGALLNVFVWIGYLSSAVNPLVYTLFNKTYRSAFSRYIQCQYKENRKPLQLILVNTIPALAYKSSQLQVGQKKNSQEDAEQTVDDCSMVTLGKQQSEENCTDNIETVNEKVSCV

Take `CN(C)CCON=C(C=Cc1ccc(O)cc1)c1ccccc1F` [NSC_6438382]: the Ki (in general, a dissociation constant, usually derived from enzyme kinetics or from competition with a known ligand) in experiment [1] is > 10 µM; in [2], 0.0058 µM; in experiment [3], 3.4 µM; in experiment [4] it was 0.12 µM; in experiment [5] it was 5 µM; in [6] it was > 10 µM. Besides, the Ki is 1 µM in experiment [7], 9 µM in [8], > 10 µM in [9] and > 10 µM in [10].
